{"source": "patent US20140057908A1", "about": "“Method of Treating Cancer” (Exelixis, Inc., priority 2010, published 2014)", "key": {"[1]": {"tested_on": "castration-resistant prostate cancer (CRPC) with bone metastases", "assay": "adaptive phase 2 trial (NCT00940225), case studies of the first three CRPC patients with bone metastases", "type": "in vivo, human", "details": "for Bone scan (best response) / PSA (best response) / tALP (best response) / Hemoglobin (best response): 100 mg dose; for Hemoglobin (best response): change from baseline; for PSA: Week 18", "source_text": "All patients provided informed consent before study screening."}, "[2]": {"tested_on": "pancreatic neuroendocrine tumor", "assay": "murine pancreatic neuroendocrine tumor model", "details": "mouse, in vivo"}, "xenograft tumor models": {"tested_on": "xenograft tumor models", "assay": "xenograft tumor models", "details": "in vivo"}, "[3]": {"assay": "gravimetric vapor sorption (GVS) study", "type": "physicochemical", "details": "crystalline form; 25° C. and 90% humidity", "protocol": "A gravimetric vapor sorption (GVS) study was run using a standard procedure. Samples were run on a dynamic vapor sorption analyzer (Surface Measurement Systems) running DVSCFR software. Sample sizes were typically 10 mg. A moisture adsorption desorption isotherm was performed as outlined below. The standard isotherm experiment, performed at 25° C., is a two-cycle run, starting at 40% RH, increasing humidity to 90% RH, decreasing humidity to 0% RH, increasing humidity again to 90% RH, and finally decreasing humidity to 0% RH in 10% RH intervals."}}}
{"smiles": "COc1cc2nccc(Oc3ccc(NC(=O)C4(C(=O)Nc5ccc(F)cc5)CC4)cc3)c2cc1OC", "note": "[Compound 1, N-(4-{[6,7-bis(methyloxy)quinolin-4-yl]oxy}phenyl)-N′-(4-fluorophenyl)cyclopropane-1,1-dicarboxamide]", "values": [{"measurement": "Bone scan (best response)", "setting": "[1]; Patient 1", "result": "Complete"}, {"measurement": "PSA (best response)", "setting": "[1]; Patient 1", "result": "−78", "unit": "%"}, {"measurement": "tALP (best response)", "setting": "[1]; Patient 1", "result": "−77", "unit": "%"}, {"measurement": "Hemoglobin (best response)", "setting": "[1]; Patient 1", "result": "+1.4 g/dL"}, {"measurement": "CT scan response", "setting": "[1]; Patient 1, Week 6", "result": "partial response (PR)"}, {"measurement": "decrease in measurable target lesions (CT scan)", "setting": "[1]; Patient 1, Week 6", "result": 33, "unit": "%"}, {"measurement": "PSA", "setting": "[1]; Patient 1, baseline 430 ng/mL", "result": 93.5, "unit": "ng/mL"}, {"measurement": "PSA (best response)", "setting": "[1]; Patient 2", "result": "+61%"}, {"measurement": "tALP (best response)", "setting": "[1]; Patient 2", "result": "−6", "unit": "%"}, {"measurement": "Hemoglobin (best response)", "setting": "[1]; Patient 2", "result": "+1.8 g/dL"}, {"measurement": "decrease in target lesions (CT scan)", "setting": "[1]; Patient 2, Week 6", "result": 13, "unit": "%"}, {"measurement": "Bone scan (best response)", "setting": "[1]; Patient 3", "result": "Near resolution"}, {"measurement": "PSA (best response)", "setting": "[1]; Patient 3", "result": "−57", "unit": "%"}, {"measurement": "tALP (best response)", "setting": "[1]; Patient 3", "result": "−77", "unit": "%"}, {"measurement": "Hemoglobin (best response)", "setting": "[1]; Patient 3", "result": "+2.2 g/dL"}, {"measurement": "decrease in measurable target lesions (CT scan)", "setting": "[1]; Patient 3, Week 6", "result": 43, "unit": "%"}, {"measurement": "PSA", "setting": "[1]; Patient 3, 2.4 ng/mL at screening", "result": 1.2, "unit": "ng/mL"}, {"measurement": "bone lesions, summary of three metastatic CRPC patients", "setting": "[1]; all three patients", "result": "near complete resolution of bone lesions"}, {"measurement": "uptake of radiotracer on bone scan, summary", "setting": "[1]; all three patients", "result": "striking decrease in uptake of radiotracer on bone scan"}, {"measurement": "overall survival", "setting": "[2]", "result": "substantially improves overall survival"}, {"measurement": "tumor invasiveness and metastasis", "setting": "[2]", "result": "significantly reduces tumor invasiveness and metastasis"}, {"measurement": "effect on tumors in xenograft tumor models", "setting": "xenograft tumor models", "result": "causes tumor regression"}]}
{"smiles": "COc1cc2c(Oc3ccc(NC(=O)C4(C(=O)Nc5ccc(F)cc5)CC4)cc3F)ccnc2cc1OCCCN1CCOCC1", "note": "[Compound 2, N-[3-fluoro-4-({6-(methyloxy)-7-[(3-morpholin-4-ylpropyl)oxy]quinolin-4-yl}oxy)phenyl]-N′-(4-fluorophenyl)cyclopropane-1,1-dicarboxamide]", "values": [{"measurement": "overall survival", "setting": "[2]", "result": "substantially improves overall survival"}, {"measurement": "tumor invasiveness and metastasis", "setting": "[2]", "result": "significantly reduces tumor invasiveness and metastasis"}, {"measurement": "effect on tumors in xenograft tumor models", "setting": "xenograft tumor models", "result": "causes tumor regression"}, {"measurement": "weight gain (GVS)", "setting": "[3]", "result": 2.5, "unit": "%"}]}
